Experimental data published in patent US10682415B2, “Thermogel formulation for combination drug delivery” (Wisconsin Alumni Research Foundation, priority 2013, dated 2020).

Assays:
[1] = Initial gel formation experiments (stable thermogel with PLGA-PEG-PLGA); type: physicochemical; settings: for Thermogel Formation: drug(s) with PLGA-PEG-PLGA polymer, about 1 mg drug per 10 mg polymer
[2] = Drug content incorporated in thermogel quantified by RP-HPLC; type: physicochemical
Description: (§1) The drug delivery system containing a combination of three drugs can be prepared as follows. Paclitaxel (PTX; 6 mg), 17-AAG (6 mg), and rapamycin (RAPA; 3 mg) were combined with 1.5 mL of tent-Butanol (TBA) to obtain a clear solution at 60° C. Separately, cold water was added to PLGA1.5k-PEG1k-PLGA1.5k and the mixture was incubated at refrigeration temperature (4° C.) for 2-3 days to obtain 100 mg/mL of polymer solution. The polymer solution (1.5 mL) was rapidly added to 1.5 mL of drug/TBA mixture (50% TBA). The mixture was rapidly vortexed and warmed to 60° C. for less than one minute to prevent phase separation. The mixture was rapidly frozen with ethanol/dry ice (−72° C.) for 1 hour and lyophilized for 24 hours (below 0.8 bar at −45° C.).
(§2) Samples were diluted with cold water and kept at 4° C. Liquefied samples were passed through about […] (e.g., clear solution (x)) to about 0.2 μm (e.g., clear solution (y)) of a regenerated cellulose membrane filter (RC filter) at 4° C. and concentrations were quantified using RP-HPLC.

[3] = Drug release kinetics of thermogel at 37° C. (cassette MWCO 20,000, first-order model); type: physicochemical
Description: The drug release kinetics of the composition at 37° C. was evaluated. Data is shown below in Table 1-3. […] Each cassette (MWCO 20,000) contained 0.3 mL of Triogel (n=3). […] The profile of the release kinetics was fit into a first-order model (Prism ver 5.0), as illustrated in FIG. 2.
The release kinetics of 1-drug thermogels (37° C.) were analyzed. Separately, compositions having 6 mg, 6 mg, and 3 mg of PTX, 17-AAG, and RAPA mixed with 60, 60, and 30 mg of polymers, respectively, in 1.0 mL of water were evaluated. Each cassette (MWCO 20,000) contained 0.3 mL of Thermogel (n=3). Profile of release kinetics was fit into a first-order model (Prism ver 5.0).

[4] = Rehydration time, gelation time and physical observation of lyophilized sample and gel; type: physicochemical
Description: as §1, §2
In general, an elegant lyophilized cake can improve rehydration time and solubility of the lyophilized cake in aqueous solution.

[5] = test system: ES-2-luc human ovarian cancer cells; assay: In vitro cytotoxicity in ES-2-luc cells
[6] = neutral pH; cited from earlier work

CC(=O)O[C@H]1C(=O)[C@@]2(C)[C@H]([C@H](OC(=O)c3ccccc3)[C@]3(O)C[C@H](OC(=O)[C@H](O)[C@@H](NC(=O)c4ccccc4)c4ccccc4)C(C)=C1C3(C)C)[C@]1(OC(C)=O)CO[C@@H]1C[C@@H]2O [PTX, paclitaxel]
Thermogel Formation [1]: Yes | PTX gel incorporation by RP-HPLC analysis ([2]; 6 mg PTX in 150 mg of polymer and 50 wt. % TBA): 5.33 mg | Final level of drug, PTX ([2]; single, two and three drug compositions, initial level 6.0 mg/mL): 5.8 ± 0.5 mg/mL | k: release kinetic constant ([3]; release from Triogel (6 mg/6 mg/3 mg PTX/17-AAG/RAPA, 150 mg polymer, 1 mL water), n = 3): 0.0577 ± 0.0230 h⁻¹ | k (release kinetic constant) ([3]; release from two drug thermogel PTX/17-AAG (6 mg/6 mg in 120 mg polymer, 1 mL water)): 0.2037 ± 0.0575 h⁻¹ | k (release kinetic constant) ([3]; release from two drug thermogel PTX/RAPA (6 mg/3 mg in 90 mg polymer, 1 mL water)): 0.1035 ± 0.0354 h⁻¹ | k (release kinetic constant) ([3]; single drug compositions, n = 3): 0.0682 ± 0.0112 h⁻¹ | time to form a gel at room temperature ([4]; room temperature): less than two minutes | time gel-like form is retained ([4]; room temperature, 6 mg PTX in 150 mg of polymer): more than two weeks | Physical obs. of gel ([4]; single, two and three drug compositions): Good

CO[C@H]1C[C@@H]2CC[C@@H](C)[C@@](O)(O2)C(=O)C(=O)N2CCCC[C@H]2C(=O)O[C@H]([C@H](C)C[C@@H]2CC[C@@H](O)[C@H](OC)C2)CC(=O)[C@H](C)/C=C(\C)[C@@H](O)[C@@H](OC)C(=O)[C@H](C)C[C@H](C)/C=C/C=C/C=C/1C [RAPA, rapamycin]
cytotoxic effect (in words) [5]: did not induce significant cytotoxic effect

CC1=C2C[C@H]3[C@@H](CC=C4C[C@@H](O)CC[C@@]43C)[C@@H]2CC[C@]12O[C@@H]1C[C@H](C)CN[C@H]1[C@H]2C [Cyclopamine (CYP), cyclopamine]
Thermogel Formation [1]: No | stable thermogel formation / gel integrity ([1]; warming the 4° C. solution with PLGA-PEG-PLGA to room temperature / 37° C.): a stable thermogel was unable to be prepared

C=CCNC1=C2C[C@@H](C)C[C@H](OC)[C@H](O)[C@@H](C)/C=C(\C)[C@H](OC(N)=O)[C@@H](OC)/C=C\C=C(/C)C(=O)NC(=CC1=O)C2=O [17-AAG, 17-allylamino-17-demethoxygeldanamycin]
water solubility [6]: about 0.1 mg/mL | cytotoxic effect (in words) [5]: did not induce significant cytotoxic effect | IC50 ([5]; drug(s) dissolved in a mixture of DMSO and medium): 933.6 ± 1.8 nM
